Assay results: patent US4801534A, “Water soluble zanthylium derivative substrates” (Coulter Electronics, Inc., priority 1987, dated 1989)

Experiments:
Format in all cases: biochemical
[1] = target: T1, Thrombin (Homo sapiens, UniProt P00734); assay: Thrombin reaction rates, spectrophotometric, change in absorbance at 496 nm; conditions: 37° C., 0.10M ACES pH 7.0, 0.05M KCl
T1 construct: Thrombin reaction rates were determined with the water soluble substrate
Description: Identical test conditions were used including temperature 37° C., volume 1.0 ml., and buffer 0.10M ACES pH 7.0, with 0.05M KCl. Since sarcosyl (Sar) and carbobenzyloxy (Cbz) have similar molecular weights, both were tested at 100 ug/ml.

[2] = target: T2, Purified human alpha-thrombin (Homo sapiens, UniProt P00734); assay: Spectrophotometric assay of thrombin with (Pyro-Pro-Arg)2-Rhodamine 110; conditions: substrate 78 ug/mL, 37° C., pH 8.0
T2 construct: Purified human alpha-thrombin; purchased Dr. John Fenton, N.Y. State Dept. of Health
Description: Dose response curves were determined for three different concentrations of thrombin by measuring absorbance increases at 468 nm and 496 nm. Working thrombin dilutions were prepared as follows: Purified human alpha-thrombin, Dr. John Fenton, N.Y. State Dept. of Health, was diluted to 1.04 U/mL, 0.52 U/mL and 0.25 U/mL in 0.05M HEPES, pH 8.0, with 0.25M NaCl and maintained at 4° C. The substrate, (Pyro-Pro-Arg)2 -Rhodamine 110, was dissolved to 78 ug/mL in 0.20M HEPES, pH 8.0, with 0.3M KCl. Disposable acrylic cuvettes with 1 cm light path, Centaur Sciences, Inc. were used. A one mL aliquot of substrate was pipetted into a cuvette and warmed to 37° C. in a heating block. A one mL sample of a working thrombin dilution was added to the cuvette. After mixing the thrombin and substrate, absorbances at 468 nm and 496 nm were determined for 30 seconds with a Hewlett-Packard Model 8450A spectrophotometer. The increased absorbances over the timed intervals were: […]

[3] = system: coagulation factor VIII; assay: Fluorescent coagulation factor VIII assay based on APTT, substrate detects thrombin generation
Description: (§1) Fluorescent assays for coagulation factors VIII and IX, based on the activated partial thromboplastin time (APTT) assay, were performed with the substrate (Sar-Pro-Arg)2 -Rhodamine 110. The synthetic substrate was used to detect thrombin generation, substituting for the natural substrate fibrinogen present in both human and animal plasmas. Standard calibration curves were constructed with normal plasma, Thromboscreen™ from Curtin Matheson Scientific, which was used to correct factor VIII and IX deficient plasmas, George King Biomedical. The APTT reagent contained purified soybean phospholipids and ellagic acid activator, Dade Diagnostics. […] A Turner model 430 spectrofluorometer with a temperature controlled sample cell holder (37° C.) was used to make the kinetic fluorescent measurements. Excitation and emission wavelengths were set at 468 nm and 525 nm, respectively. Glass test tubes were used to perform the plasma activations and disposable acrylic cuvettes, Centaur Sciences, Inc., were used for the fluorescent measurements.
(§2) A 100 uL aliquot of 0.85% saline or normal plasma diluted in saline was added to a test tube followed by the sequential addition of 100 uL of factor deficient plasma and 100 uL of the APTT reagent. The test tube was incubated in a heating block at 37° C. for 2 minutes, at which time 100 uL of 25 mM CaCl2 was added and the incubation was continued for an additional 30 seconds. The incubation mixture was transferred to a cuvette containing 2.0 mL of the substrate solution prewarmed to 37° C. and the fluorescent rate measured. Linear dose response curves were obtained for factors VIII and IX between 1% and 100% of normal: […]

[4] = system: coagulation factor IX; assay: Fluorescent coagulation factor IX assay based on APTT, substrate detects thrombin generation
Description: as §1, §2

[5] = substrate 80 micromolar, 15% ethanol for the Cbz substrate
[6] = Factor level 1 % normal, plasma dilution 1:250
[7] = Factor level 10 % normal, plasma dilution 1:25
[8] = Factor level 100 % normal, plasma dilution 1:2.5
[9] = Factor level <1 % normal (no plasma dilution), ex 468 nm, em 525 nm, quinine sulfate = 1.0

| Absorbance, 0-30 seconds, 468 nm ([2]; Thrombin 0.26 U/mL) | Absorbance, 0-30 seconds, 496 nm ([2]; Thrombin 0.26 U/mL) | Absorbance, 0-30 seconds, 468 nm ([2]; Thrombin 0.52 U/mL) | Absorbance, 0-30 seconds, 496 nm ([2]; Thrombin 0.52 U/mL) | Absorbance, 0-30 seconds, 468 nm ([2]; Thrombin 1.04 U/mL) | Absorbance, 0-30 seconds, 496 nm ([2]; Thrombin 1.04 U/mL) | Substance | Change In Absorbance, 496 nm/Unit Thrombin/mL [1, 5] | Change In Absorbance, 496 nm/Unit Thrombin/mL ([1]; substrate 800 micromolar) | Relative Fluorescence, Factor VIII [3, 6] | Relative Fluorescence, Factor VIII [3, 7] | Relative Fluorescence, Factor VIII [3, 8] | Relative Fluorescence, Factor VIII [3, 9] | Relative Fluorescence, Factor IX [4, 6] | Relative Fluorescence, Factor IX [4, 7] | Relative Fluorescence, Factor IX [4, 8] | Relative Fluorescence, Factor IX [4, 9] |
| --- | --- | --- | --- | --- | --- | --- | --- | --- | --- | --- | --- | --- | --- | --- | --- | --- |
| – | – | – | – | – | – | (Cbz-L-Pro-Arg)2 -Rhodamine 110 [(Cbz-Pro-Arg)2 -Rhodamine 110, reference compound] | 0.122 | – | – | – | – | – | – | – | – | – |
| 0.0461 | 0.0462 | 0.0912 | 0.0860 | 0.1766 | 0.1671 | (H-L-Pyro-Pro-Arg)2 -Rhodamine 110 [(Pyro-Pro-Arg)2 -Rhodamine 110] | – | – | – | – | – | – | – | – | – | – |
| – | – | – | – | – | – | (H-Sar-Pro-Arg)2 -Rhodamine 110 [(Sar-Pro-Arg)2 -Rhodamine 110] | 1.700 | 2.872 | 0.121 | 0.148 | 0.333 | 0.119 | 0.127 | 0.154 | 0.333 | 0.121 |
